In PubChem BioAssay (NCI):
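Cells were grown in 96-well plates and exposed to each compound for 48 hours at five concentrations; endpoints were interpolated linearly between bracketing concentrations, or set to the highest concentration if not reached. The concentration for full growth arrest is given as TGI.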

Key:
Experiment in all cases: NCI-60 cell line screen, 48 h
[1] = tested on: ACHN renal
[2] = tested on: CCRF-CEM leukemia
[3] = tested on: EKVX NSCLC
[4] = tested on: IGROV1 ovarian
[5] = tested on: LOX IMVI melanoma
[6] = tested on: MALME-3M melanoma
[7] = tested on: MOLT-4 leukemia
[8] = tested on: NCI-H23 lung
[9] = tested on: OVCAR-4 ovarian
[10] = tested on: OVCAR-5 ovarian
[11] = tested on: PC-3 prostate
[12] = tested on: SF-268 CNS
[13] = tested on: SF-295 CNS
[14] = tested on: SK-MEL-2 melanoma
[15] = tested on: SK-MEL-5 melanoma
[16] = tested on: SNB-19 CNS
[17] = tested on: SR leukemia
[18] = tested on: T-47D breast
[19] = tested on: UACC-257 melanoma
[20] = tested on: UACC-62 melanoma

Question: How did the TGI [1] turn out when `Cc1nc2sc3ccccc3n2c(=O)c1N=Nc1ccc(Br)cc1` was run?
Answer: Its TGI is greater than 100 µM.

Question: What about the TGI [2] of the same molecule?
Answer: The TGI was greater than 100 µM.

Question: And the TGI [3]?
Answer: The TGI was greater than 100 µM.

Question: What about the TGI [4] of the same molecule?
Answer: Its TGI is greater than 100 µM.

Question: And the TGI [5]?
Answer: The TGI was greater than 100 µM.

Question: What about the TGI [6] of the same molecule?
Answer: The TGI was greater than 100 µM.

Question: And the TGI [7]?
Answer: Its TGI is greater than 100 µM.

Question: What about the TGI [8] of the same molecule?
Answer: The TGI was greater than 100 µM.

Question: And the TGI [9]?
Answer: The TGI was greater than 100 µM.

Question: What about the TGI [10] of the same molecule?
Answer: Its TGI is greater than 100 µM.

Question: What about the TGI [11] of the same molecule?
Answer: Its TGI is greater than 100 µM.

Question: What about the TGI [12] of the same molecule?
Answer: The TGI was greater than 100 µM.

Question: What about the TGI [13] of the same molecule?
Answer: The TGI was greater than 100 µM.

Question: And the TGI [14]?
Answer: Its TGI is greater than 100 µM.

Question: And the TGI [15]?
Answer: Its TGI is greater than 100 µM.

Question: What about the TGI [16] of the same molecule?
Answer: Its TGI is greater than 100 µM.

Question: What about the TGI [17] of the same molecule?
Answer: The TGI was greater than 100 µM.

Question: What about the TGI [18] of the same molecule?
Answer: Its TGI is greater than 100 µM.

Question: And the TGI [19]?
Answer: The TGI was greater than 100 µM.

Question: And the TGI [20]?
Answer: The TGI was greater than 100 µM.

Question: With `CC(C)(C)OC(=O)c1cnc(Cl)cn1` as the molecule, how does the TGI [1] read?
Answer: Its TGI is 99.6 µM.

Question: And the TGI [2]?
Answer: The TGI was 72.7 µM.

Question: And the TGI [3]?
Answer: Its TGI is 64.3 µM.

Question: What about the TGI [4] of the same molecule?
Answer: Its TGI is 44.7 µM.

Question: And the TGI [5]?
Answer: Its TGI is 62.9 µM.

Question: What about the TGI [6] of the same molecule?
Answer: The TGI was greater than 100 µM.

Question: What about the TGI [7] of the same molecule?
Answer: The TGI was greater than 100 µM.

Question: What about the TGI [8] of the same molecule?
Answer: The TGI was 55.4 µM.

Question: And the TGI [9]?
Answer: The TGI was 91.9 µM.

Question: What about the TGI [10] of the same molecule?
Answer: The TGI was greater than 100 µM.

Question: And the TGI [11]?
Answer: Its TGI is greater than 100 µM.

Question: What about the TGI [12] of the same molecule?
Answer: The TGI was greater than 100 µM.

Question: And the TGI [13]?
Answer: Its TGI is greater than 100 µM.

Question: What about the TGI [14] of the same molecule?
Answer: The TGI was 80.6 µM.

Question: What about the TGI [15] of the same molecule?
Answer: The TGI was greater than 100 µM.

Question: What about the TGI [16] of the same molecule?
Answer: The TGI was greater than 100 µM.

Question: And the TGI [17]?
Answer: Its TGI is greater than 100 µM.

Question: What about the TGI [18] of the same molecule?
Answer: The TGI was greater than 100 µM.

Question: What about the TGI [19] of the same molecule?
Answer: The TGI was greater than 100 µM.

Question: And the TGI [20]?
Answer: The TGI was greater than 100 µM.

Question: What does the source list for `CS/C1=C(\c2ccc(C)cc2)N(c2ccccc2)C(=O)C(=O)N(c2ccccc2)/C(c2ccc(C)cc2)=C(/SC)SS1`?
Answer: TGI [1]: > 100 µM; TGI [2]: > 100 µM; TGI [3]: > 100 µM; TGI [4]: > 100 µM; TGI [5]: > 100 µM; TGI [6]: > 100 µM; TGI [7]: > 100 µM; TGI [8]: > 100 µM; TGI [9]: > 100 µM; TGI [10]: > 100 µM; TGI [11]: > 100 µM; TGI [12]: > 100 µM; TGI [13]: > 100 µM; TGI [14]: > 100 µM; TGI [16]: > 100 µM; TGI [17]: > 100 µM; TGI [18]: > 100 µM; TGI [19]: > 100 µM; TGI [20]: > 100 µM

Question: `O=c1[nH]/c(=C/c2ccc(OCc3ccccc3)cn2)c(=O)[nH]/c1=C/c1ccc([N+](=O)[O-])cc1` was tested. Which TGI [1] did it give?
Answer: Its TGI is greater than 100 µM.

Question: And the TGI [2]?
Answer: The TGI was greater than 100 µM.

Question: What about the TGI [3] of the same molecule?
Answer: The TGI was greater than 100 µM.

Question: What about the TGI [4] of the same molecule?
Answer: The TGI was greater than 100 µM.

Question: What about the TGI [5] of the same molecule?
Answer: Its TGI is greater than 100 µM.

Question: What about the TGI [6] of the same molecule?
Answer: Its TGI is greater than 100 µM.

Question: What about the TGI [7] of the same molecule?
Answer: The TGI was greater than 100 µM.

Question: What about the TGI [8] of the same molecule?
Answer: The TGI was greater than 100 µM.

Question: What about the TGI [9] of the same molecule?
Answer: The TGI was greater than 100 µM.

Question: What about the TGI [10] of the same molecule?
Answer: Its TGI is greater than 100 µM.

Question: And the TGI [11]?
Answer: Its TGI is greater than 100 µM.

Question: What about the TGI [12] of the same molecule?
Answer: Its TGI is greater than 100 µM.

Question: And the TGI [13]?
Answer: The TGI was greater than 100 µM.

Question: And the TGI [14]?
Answer: Its TGI is greater than 100 µM.

Question: What about the TGI [15] of the same molecule?
Answer: The TGI was greater than 100 µM.

Question: And the TGI [16]?
Answer: The TGI was greater than 100 µM.

Question: What about the TGI [17] of the same molecule?
Answer: Its TGI is greater than 100 µM.

Question: What about the TGI [18] of the same molecule?
Answer: Its TGI is greater than 100 µM.

Question: What about the TGI [19] of the same molecule?
Answer: Its TGI is greater than 100 µM.

Question: What about the TGI [20] of the same molecule?
Answer: Its TGI is greater than 100 µM.

Question: How did the TGI [1] turn out when `CN(CCCCN1CCCC1)CCCN(C)C(=O)Cc1ccc(Cl)c(Cl)c1` was run?
Answer: The TGI was greater than 100 µM.

Question: And the TGI [2]?
Answer: The TGI was 20.9 µM.

Question: And the TGI [3]?
Answer: The TGI was 37.6 µM.

Question: What about the TGI [4] of the same molecule?
Answer: The TGI was 45.2 µM.

Question: What about the TGI [5] of the same molecule?
Answer: Its TGI is 27.9 µM.

Question: And the TGI [6]?
Answer: Its TGI is 34.7 µM.

Question: What about the TGI [7] of the same molecule?
Answer: The TGI was 26.5 µM.

Question: And the TGI [8]?
Answer: Its TGI is 37.7 µM.

Question: And the TGI [9]?
Answer: Its TGI is 53.8 µM.

Question: What about the TGI [10] of the same molecule?
Answer: Its TGI is 57.8 µM.

Question: What about the TGI [11] of the same molecule?
Answer: The TGI was 52.7 µM.

Question: And the TGI [12]?
Answer: The TGI was greater than 100 µM.

Question: What about the TGI [13] of the same molecule?
Answer: Its TGI is 38.8 µM.

Question: What about the TGI [14] of the same molecule?
Answer: The TGI was 22.5 µM.

Question: What about the TGI [15] of the same molecule?
Answer: Its TGI is 23.8 µM.

Question: And the TGI [16]?
Answer: The TGI was 57.2 µM.

Question: What about the TGI [17] of the same molecule?
Answer: Its TGI is 15.6 µM.

Question: What about the TGI [18] of the same molecule?
Answer: The TGI was 44.2 µM.

Question: And the TGI [19]?
Answer: The TGI was 13.5 µM.

Question: What about the TGI [20] of the same molecule?
Answer: Its TGI is 16.9 µM.
